Measured values taken from patent publication EP0408284B1, “Amylin for treatment of bone disorders” (AMYLIN PHARMACEUTICALS, INC., priority 1989, dated 1996).
Read-outs that look alike come from different tables or passages of the source. Ends that are not written are not given here.

Tests used:
[1] = tested on: disaggregated rat osteoclasts
Experimental: (§1) Bone resorption assay: Human cortical bone slices were prepared as previously described (Zaidi et al. Quart J.Exp. Physiol. 73, p. 471 (1988). The slices were then cut into pieces, each measuring about 3mm². Newborn Wistar rats were killed by decapitation and their femora and tibiae removed. The bones were freed of adherent soft tissues and cut across their epiphyses in Medium 199 with foetal calf serum (FCS, 10%, v/v) and antibiotics (Flow Laboratories, UK, Ltd.). Osteoclasts were mechanically disaggregated by curetting the bones of each rat with a scalpel blade into Medium 199 (1 ml) and agitating the suspension with a pipette. Large fragments were allowed to settle for 10 seconds, before the supernatant was dropped onto 30 to 35 bone slices placed in a well of a Sterilin 100 18mm multiwell dish. Following incubation (37°C; 15 minutes), the bone slices were removed, washed gently in Minimal Essential Medium with FCS (10%, v/v) (MEM/FCS) and placed in separate wells (each well contained 5-6 slices and 900 µl MEM/FCS). […] After further incubation (37°C, 10% humidified CO₂, 10 minutes), 100 µl of MEM/FCS containing the test substance was added. Finally, bone slices were incubated overnight (37°C, 10% humidified CO₂, 18 hours) and quantified in terms of cell numbers and bone resorption. After fixation in glutaraldehyde, cells were stained with toluidine blue and examined by transmitted light microscopy. In order to rule out toxic effects, osteoclasts were counted on three slices for every variable and their numbers were then compared on hormone-treated and control bone slices. The slices were bleached by immersion in sodium hypochlorite solution (10% v/v) for 30 minutes and dehydrated in aqueous ethanol (80% v/v). The slices were then sputter coated with gold, randomized and examined in a Cambridge 360 Scanning Electron Microscope (Cambridge Instruments, Cambridgeshire). Osteoclastic excavations, each defined by a continuous border within an area of unresorbed bone were counted. The area of bone surface resorbed was calculated by tracing the outline of the concavities into an image processor (Sight Systems, Newbury, Berks).

[2] = tested on: isolated osteoclasts; assay: second messenger pathways and functional responses of isolated osteoclasts; assay type: cell-based
Source text: Thus, it appears that osteoclast activity may be restrained via two receptor types; calcitonin acts at both while amylin acts mainly via only one, reducing motility, reducing resorption and probably acting via the second messenger cAMP (Zaidi et. al. 1990, J. Endocrinol 126, 473-481).

[3] = in vivo rat hypocalcaemia assay: plasma calcium after intravenous injection of the peptide; parameters: species or system male Wistar rats
Experimental: The effects of amylin and deamidated amylin on calcium metabolism in the rat and rabbit were investigated by two different methods. First, in vivo hypocalcaemic activity was assessed by measuring plasma calcium levels after injection of the peptide in 50 g rats. Next, in vitro resorption of cortical bone by disaggregated rat osteoclasts was quantified by scanning electron microscopy together with image analysis. […] Both are inhibitors of osteoclastic resorption and lower plasma calcium in both rats and rabbits. Described below are experiments which show the biological activity of both amylin and deamidated amylin using the in vivo rat hypocalcaemia assay and an in vitro bone resorption system. In addition, the effect on plasma calcium levels of infusion of high doses of amylin into rabbits is described.
Animal experiments: Fifty gram male Wistar rats (mean weight ± SEM, 51 ± 1.2g, Charles Rivers, Margate, Kent) were fasted overnight with ad lib access to water and used for experiments. […] Following injection the animals were bled into heparinized syringes via the dorsal aorta under light ether anaesthesia. In another set of experiments, rabbits (mean weight ± SEM, 3.2 ± 0.3 kg) were restrained in wooden cages and sedated with Hypnorm (1 ml) (Janssen, Denmark). […] Plasma was separated and calcium levels measured by DC Plasma Emission Spectrophotometry.

[4] = plasma calcium after intravenous infusion in patients with Paget's disease; assay type: in vivo
Experimental: Furthermore, 1 hour of intravenous infusion of 150 pmol/Kg/min amylin into four human patients with Paget's disease reduced plasma calcium by amounts ranging from […].

[5] = tested on: disaggregated rat osteoclasts; assay: bone resorption assay: isolated osteoclasts on human cortical bone slices, scanning electron microscopy with image analysis
Experimental: as §1

[6] = plasma calcium during and after continuous intravenous infusion into rabbits; assay type: in vivo; conditions: infusion of 500 pmol per minute over 90 minutes
Experimental: Animal experiments: Fifty gram male Wistar rats (mean weight ± SEM, 51 ± 1.2g, Charles Rivers, Margate, Kent) were fasted overnight with ad lib access to water and used for experiments. […] Following injection the animals were bled into heparinized syringes via the dorsal aorta under light ether anaesthesia. In another set of experiments, rabbits (mean weight ± SEM, 3.2 ± 0.3 kg) were restrained in wooden cages and sedated with Hypnorm (1 ml) (Janssen, Denmark). They were infused with saline or amylin (500 pmol min ⁻¹) for 90 minutes via a 21 G needle inserted into the lateral ear vein. The needle was connected to a pump via a polythene cannula (Portex, 00, Hythe, Kent). Blood samples were taken at timed intervals before and after the infusion was commenced. Plasma was separated and calcium levels measured by DC Plasma Emission Spectrophotometry.

[7] = peptides not all compared in the same assay

| Molecule | cell number or viability [1] | cell retraction [2] | cytosolic calcium [2] | osteoclast motility [2] | effect on plasma calcium ([3]; 50 g rats, intravenous injection of 500 pmol) | responses (hypocalcaemic and anti-resorptive activity) compared with calcitonin and CGRP ([3]; summary covering the in vivo and the in vitro tests, order: asu1-7-eel CT>human CT>amylin/amylin amide>CGRP) | potency compared with human calcitonin [4] | total area of bone resorbed by isolated osteoclasts ([5]; 18 hours incubation, concentration-dependent) | cell number or viability ([5]; osteoclasts counted on hormone-treated and control bone slices) | potency compared with CGRP [5, 7] | potency compared with human calcitonin [5, 7] | effect on plasma calcium [6] | time calcium levels continued to fall after the end of the infusion [6] [min] | time until a trend to lower plasma calcium was apparent [6] [min] |
| --- | --- | --- | --- | --- | --- | --- | --- | --- | --- | --- | --- | --- | --- | --- |
| CC[C@H](C)[C@H](NC(=O)[C@H](C)NC(=O)CNC(=O)[C@H](Cc1ccccc1)NC(=O)[C@H](CC(N)=O)NC(=O)[C@H](CC(N)=O)NC(=O)[C@H](CO)NC(=O)[C@H](CO)NC(=O)[C@H](Cc1c[nH]cn1)NC(=O)[C@@H](NC(=O)[C@H](CC(C)C)NC(=O)[C@H](Cc1ccccc1)NC(=O)[C@H](CC(N)=O)NC(=O)[C@H](C)NC(=O)[C@H](CC(C)C)NC(=O)[C@H](CCCNC(=N)N)NC(=O)[C@H](CCC(N)=O)NC(=O)[C@@H](NC(=O)[C@H](C)NC(=O)[C@@H]1CSSC[C@H](NC(=O)[C@@H](N)CCCCN)C(=O)N[C@@H](CC(N)=O)C(=O)N[C@@H]([C@@H](C)O)C(=O)N[C@@H](C)C(=O)N[C@@H]([C@@H](C)O)C(=O)N1)[C@@H](C)O)C(C)C)C(=O)N[C@@H](CC(C)C)C(=O)N[C@@H](CO)C(=O)N[C@@H](CO)C(=O)N[C@H](C(=O)N[C@@H](CC(N)=O)C(=O)N[C@H](C(=O)NCC(=O)N[C@@H](CO)C(=O)N[C@@H](CC(N)=O)C(=O)N[C@H](C(=O)N[C@@H](Cc1ccc(O)cc1)C(=O)O)[C@@H](C)O)C(C)C)[C@@H](C)O [deamidated amylin] | without affecting cell number or viability |  |  |  |  |  |  |  |  |  |  |  |  |  |
| amylin (KCNTATCATQRLANFLVHSSNNFGAILSSTNVGSNTY-NH2; cysteine pairing not given here; UniProt P10997 34-70, looked up) [37 amino acid polypeptide, disulfide bridge between cysteines 2 and 7, amidated; isolated from amyloid deposits in pancreatic islets] |  | evoked neither of these responses | evoked neither of these responses | inhibited osteoclast motility | marked hypocalcaemia | less than for calcitonin, but significantly greater than those observed with CGRP | comparably potent to human calcitonin | marked reduction | without affecting cell number or viability | more potent than CGRP | less potent than human calcitonin by about an order or magnitude | marked lowering of plasma calcium | 30 | ≤ 30 |
| calcitonin [reference compound] |  | caused cell retraction | elevated cytosolic calcium | inhibited osteoclast motility |  |  |  |  |  |  |  |  |  |  |
